Source: PMC12363342, “Investigating the N-terminal linker histone H1 subtypes as substrates for JmjC lysine demethylases” (RSC Chemical Biology, 2025)
Square brackets hold non-standard residues; d marks the D form. Ends that are not written are not given here. Lys(Me3) = C[N+](C)(C)CCCC[C@H](N)C(=O)O

Each substance was assayed on KDM3C (assay: LC-MS demethylation activity assay, KDM3C). Conditions: 2 μM KDM, 10 μM H1/H3 peptide, 10 μM FAS, 100 μM LAA, 20 μM 2OG, 50 mM HEPES pH 7.5, 2 h, room temperature, T (tri-) initial methylation state.
Assay type: biochemical, human
Outline: (§1)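 H1 isoform peptides (10 μM) were incubated 2 h at room temperature with 2 μM recombinant N-terminally His6-tagged catalytic domains in 50 mM HEPES pH 7.5 containing FAS (10 μM), ascorbate (100 μM) and 2OG (20 μM). Reactions were quenched with formic acid (1% final), and demethylation was analysed by LC-MS (Q-TOF).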
With “KKKAAK[Lys(Me3)]AGGTPRKA [Peptide H1.2K26me3, 15-mer linker histone H1.2 residues 20-34 peptide, tri-methylated K26]” the “KDM3C demethylation activity, T” value was “● [red]”. “KKKAR[Lys(Me3)]SAGAAKRKA [Peptide H1.4K25me3, 15-mer linker histone H1.4 residues 20-34 peptide, tri-methylated K25]” was tested, and the “KDM3C demethylation activity, T” value was “● [red]”. With “KKKAA[Lys(Me3)]KAGGTPRKA [Peptide H1.2K25me3, 15-mer linker histone H1.2 residues 20-34 peptide, tri-methylated K25]” the “KDM3C demethylation activity, T” value was “● [red]”. With “KKKA[Lys(Me3)]KAGATAGKRK [Peptide H1.3K24me3, 15-mer linker histone H1.3 residues 20-34 peptide, tri-methylated K24]” the “KDM3C demethylation activity, T” value was “● [red]”. For “KKKATK[Lys(Me3)]AAGAGAAK [Peptide H1.5K26me3, 15-mer linker histone H1.5 residues 20-34 peptide, tri-methylated K26]”, the “KDM3C demethylation activity, T” value was “● [red]”.

Each substance was assayed on KDM4A (assay: LC-MS demethylation activity assay, KDM4A). Conditions: 2 μM KDM4A, 10 μM peptide, 10 μM FAS, 100 μM LAA, 20 μM 2OG, HEPES pH 7.5, 2 h, room temperature.
Assay type: biochemical, human
Outline: as §1
With “KKKAAK[Lys(Me3)]AGGTPRKA [Peptide H1.2K26me3, 15-mer linker histone H1.2 residues 20-34 peptide, tri-methylated K26]” the “substrate conversion (demethylation) by KDM4A” value (“substrate conversion … by KDM4A” below) was ~51%. With “KKKAR[Lys(Me3)]SAGAAKRKA [Peptide H1.4K25me3, 15-mer linker histone H1.4 residues 20-34 peptide, tri-methylated K25]” the “substrate conversion … by KDM4A” value was ~87%. “KKKAA[Lys(Me3)]KAGGTPRKA [Peptide H1.2K25me3, 15-mer linker histone H1.2 residues 20-34 peptide, tri-methylated K25]” was tested, and the “substrate conversion … by KDM4A” value was ~45%. “KKKA[Lys(Me3)]KAGATAGKRK [Peptide H1.3K24me3, 15-mer linker histone H1.3 residues 20-34 peptide, tri-methylated K24]” was tested, and the “substrate conversion … by KDM4A” value was ~36%. With “KKKATK[Lys(Me3)]AAGAGAAK [Peptide H1.5K26me3, 15-mer linker histone H1.5 residues 20-34 peptide, tri-methylated K26]” the “substrate conversion … by KDM4A” value was < 10%.

Same assay, conditions: 2 μM KDM, 10 μM H1/H3 peptide, 10 μM FAS, 100 μM LAA, 20 μM 2OG, 50 mM HEPES pH 7.5, 2 h, room temperature, T (tri-) initial methylation state
With “KKKAAK[Lys(Me3)]AGGTPRKA [Peptide H1.2K26me3, 15-mer linker histone H1.2 residues 20-34 peptide, tri-methylated K26]” the “KDM4A demethylation activity, T” value was “● [yellow] (yellow dots indicate moderate demethylation (<50% conversion))”. In the case of “KKKAR[Lys(Me3)]SAGAAKRKA [Peptide H1.4K25me3, 15-mer linker histone H1.4 residues 20-34 peptide, tri-methylated K25]”, the “KDM4A demethylation activity, T” value was “● [green] (green dots indicate good demethylation (>50% conversion))”. In the case of “KKKAA[Lys(Me3)]KAGGTPRKA [Peptide H1.2K25me3, 15-mer linker histone H1.2 residues 20-34 peptide, tri-methylated K25]”, the “KDM4A demethylation activity, T” value was “● [green] (green dots indicate good demethylation (>50% conversion))”. With “KKKA[Lys(Me3)]KAGATAGKRK [Peptide H1.3K24me3, 15-mer linker histone H1.3 residues 20-34 peptide, tri-methylated K24]” the “KDM4A demethylation activity, T” value was “● [green] (green dots indicate good demethylation (>50% conversion))”. “KKKATK[Lys(Me3)]AAGAGAAK [Peptide H1.5K26me3, 15-mer linker histone H1.5 residues 20-34 peptide, tri-methylated K26]” was tested, and the “KDM4A demethylation activity, T” value was “● [green] (green dots indicate good demethylation (>50% conversion))”.

Each substance was assayed against T1, KDM4D (Homo sapiens, UniProt Q6B0I6) (assay: LC-MS demethylation activity assay, KDM4D). Conditions: 2 μM KDM4D, 10 μM peptide, 10 μM FAS, 100 μM LAA, 20 μM 2OG, HEPES pH 7.5, 2 h, room temperature.
T1 construct: KDM4AM1-L359,[38]; KDM4DM1-L359,[39]; KDM4EM1-R336,[30]; His6 (N); made in house; host or cells: Escherichia coli
T1 sequence (Q6B0I6 1-359): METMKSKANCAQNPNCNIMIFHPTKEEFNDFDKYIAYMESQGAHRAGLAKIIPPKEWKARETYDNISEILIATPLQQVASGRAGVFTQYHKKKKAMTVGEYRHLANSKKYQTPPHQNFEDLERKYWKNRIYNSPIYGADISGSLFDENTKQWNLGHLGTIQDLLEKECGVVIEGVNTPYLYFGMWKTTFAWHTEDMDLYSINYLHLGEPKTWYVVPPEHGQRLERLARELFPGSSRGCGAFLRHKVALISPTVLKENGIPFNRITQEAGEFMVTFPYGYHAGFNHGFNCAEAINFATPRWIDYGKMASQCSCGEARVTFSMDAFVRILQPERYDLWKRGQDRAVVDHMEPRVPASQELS
Assay type: biochemical
Outline: as §1
For “KKKAAK[Lys(Me3)]AGGTPRKA [Peptide H1.2K26me3, 15-mer linker histone H1.2 residues 20-34 peptide, tri-methylated K26]”, the “substrate conversion (demethylation) by KDM4D” value (“substrate conversion … by KDM4D” for short) was ~70%. In the case of “KKKAR[Lys(Me3)]SAGAAKRKA [Peptide H1.4K25me3, 15-mer linker histone H1.4 residues 20-34 peptide, tri-methylated K25]”, the “substrate conversion … by KDM4D” value was ~92%. For “KKKA[Lys(Me3)]KAGATAGKRK [Peptide H1.3K24me3, 15-mer linker histone H1.3 residues 20-34 peptide, tri-methylated K24]”, the “substrate conversion … by KDM4D” value was ~68%.

Same assay, conditions: 2 μM KDM4D, 10 μM peptide, standard conditions, 2 h, room temperature
With “KKKAAK[Lys(Me3)]AGGTPRKA [Peptide H1.2K26me3, 15-mer linker histone H1.2 residues 20-34 peptide, tri-methylated K26]” the “di-methylated product formed by KDM4D” value was ~30% and the “mono-methylated product formed by KDM4D” value was ~40%. In the case of “KKKAR[Lys(Me3)]SAGAAKRKA [Peptide H1.4K25me3, 15-mer linker histone H1.4 residues 20-34 peptide, tri-methylated K25]”, the “di-methylated product formed by KDM4D” value was ~30% and the “mono-methylated product formed by KDM4D” value was ~62%. For “KKKA[Lys(Me3)]KAGATAGKRK [Peptide H1.3K24me3, 15-mer linker histone H1.3 residues 20-34 peptide, tri-methylated K24]”, the “di-methylated product formed by KDM4D” value was ~30% and the “mono-methylated product formed by KDM4D” value was ~40%.

Same assay, conditions: 2 μM KDM, 10 μM H1/H3 peptide, 10 μM FAS, 100 μM LAA, 20 μM 2OG, 50 mM HEPES pH 7.5, 2 h, room temperature, T (tri-) initial methylation state
With “KKKAAK[Lys(Me3)]AGGTPRKA [Peptide H1.2K26me3, 15-mer linker histone H1.2 residues 20-34 peptide, tri-methylated K26]” the “KDM4D demethylation activity, T” value was “● [green] (green dots indicate good demethylation (>50% conversion))”. “KKKAR[Lys(Me3)]SAGAAKRKA [Peptide H1.4K25me3, 15-mer linker histone H1.4 residues 20-34 peptide, tri-methylated K25]” was tested, and the “KDM4D demethylation activity, T” value was “● [green] (green dots indicate good demethylation (>50% conversion))”. For “KKKAA[Lys(Me3)]KAGGTPRKA [Peptide H1.2K25me3, 15-mer linker histone H1.2 residues 20-34 peptide, tri-methylated K25]”, the “KDM4D demethylation activity, T” value was “● [red]”. In the case of “KKKA[Lys(Me3)]KAGATAGKRK [Peptide H1.3K24me3, 15-mer linker histone H1.3 residues 20-34 peptide, tri-methylated K24]”, the “KDM4D demethylation activity, T” value was “● [green] (green dots indicate good demethylation (>50% conversion))”. With “KKKATK[Lys(Me3)]AAGAGAAK [Peptide H1.5K26me3, 15-mer linker histone H1.5 residues 20-34 peptide, tri-methylated K26]” the “KDM4D demethylation activity, T” value was “● [green] (green dots indicate good demethylation (>50% conversion))”.
